Assay [1] deals with A/PR/8/34 influenza virus. Kind of assay: microbe, parasite or virus in culture. The format is cell-based.
Assay [2] relates to influenza A virus (A/PR/8/34). The assay can be described thus: microbe, parasite or virus in culture. Type of assay: cell-based.
[3] abbreviates: Influenza A virus, PR/8, MDCK, bDNA assay, A/PR/8/34 influenza virus replication in MDCK cells, class symbols, read-out: EC50 (mean all).
[4] abbreviates: Influenza A virus, PR/8, MDCK, CPE assay, A/PR/8/34 infected MDCK cells, class symbols, read-out: IC50 (mean all).
Setting [5] is: Influenza A virus, PR/8, MDCK, MDCK cells infected with A/PR/8/34, replication of influenza virus (viral RNA, bDNA), class symbols, read-out: EC50 (mean all).
The mark [6] stands for this setting: Influenza A virus, PR/8, MDCK, MDCK cells infected with A/PR/8/34, survival of infected cells, class symbols, read-out: IC50 (mean all).
[7] abbreviates: mean all, bDNA viral RNA in MDCK cells infected with A/PR/8/34, read-out: EC50.
Where [8] appears, read: mean all, MDCK cells infected with A/PR/8/34, cell protection (CPE), read-out: IC50.
The mark [9] stands for this setting: Influenza A virus, PR/8, MDCK, MDCK cells infected with A/PR/8/34, bDNA viral RNA, read-out: EC50 (mean all).
Where [10] appears, read: Influenza A virus, PR/8, MDCK, MDCK cells infected with A/PR/8/34, cell protection (CPE), read-out: IC50 (mean all).

The record followed here is patent US8829007B2 (priority 2009, dated 2014).

pEC50, pIC50: −log10 of the molar value. Counter-ions that a name gives are not always drawn. Like-named read-outs stand apart in the source and are kept apart here. A value given as a limit tells only on which side of the number the result lay.

Regarding `CC1(C(=O)N[C@@H]2CCC[C@H](Nc3nc(-c4c[nH]c5ncc(Cl)cc45)ncc3F)C2)COC1` [Compound 635, N-[(1R,3S)-3-[[2-(5-chloro-1H-pyrrolo[2,3-b]pyridin-3-yl)-5-fluoro-pyrimidin-4-yl]amino]cyclohexyl]-3-methyl-oxetane-3-carboxamide hydrochloride], the negative logarithm of the EC50 (pEC50) – broadly, the EC50 on a negative log10 scale, so that one unit is a factor of ten – in assay [1] (setting [3]) was over 5.30. Also, in assay [2] (setting [4]), the pIC50 – broadly, the IC50 on a negative log10 scale, so that one unit is a factor of ten – was over 5.30.
Take `OC1CCCC(Nc2nc(-c3c[nH]c4ncc(Cl)cc34)ncc2F)C1` [Compound 524, (3S)-3-((2-(5-chloro-1H-pyrrolo[2,3-b]pyridin-3-yl)-5-fluoropyrimidin-4-ylamino)cyclohexanol]: the pEC50 in assay [1] (setting [5]) was over 5.30. Moreover, in assay [2] (setting [6]), the pIC50 was over 5.30.
Turning to `O=C(N[C@@H]1CCC[C@H](Nc2nc(-c3c[nH]c4ncc(Cl)cc34)ncc2F)C1)O[C@H]1CCOC1` [Compound 649], in assay [1] (setting [3]), the pEC50 is over 5.30. Further, in assay [2] (setting [4]), the pIC50 is over 5.30.
On to `O=C(NC1CCCC(Nc2nc(-c3c[nH]c4ncc(Cl)cc34)ncc2F)C1)C1CC1` (stereo not drawn) [Compound 684], for which, in assay [1] (setting [7]), the pEC50 is over 5.30. Moreover, the pIC50 in assay [2] (setting [8]) was over 5.30.
`COCC(=O)N[C@@H]1CCC[C@H](Nc2nc(-c3c[nH]c4ncc(Cl)cc34)ncc2F)C1` [Compound 591, N-[(1R,3S)-3-[[2-(5-chloro-1H-pyrrolo[2,3-b]pyridin-3-yl)-5-fluoro-pyrimidin-4-yl]amino]cyclohexyl]-2-methoxy-acetamide]: in assay [1] (setting [5]), the pEC50 was over 5.30. Further, in assay [2] (setting [6]), the pIC50 was over 5.30.
In the case of `CN1CCN([C@@H]2CCCC(Nc3nc(-c4c[nH]c5ncc(Cl)cc45)ncc3F)C2)C1=O` (stereo partly drawn) [Compound 958], the pEC50 in assay [1] (Influenza A virus, PR/8, mean all, replication of A/PR/8/34 influenza virus (bDNA assay), read-out: EC50) was over 5.30. Moreover, the negative logarithm of the IC50 (pIC50) in assay [2] (Influenza A virus, PR/8, MDCK, mean all, survival of A/PR/8/34 infected MDCK cells (CPE assay), read-out: IC50) is over 5.30.
Regarding `O=C(OCCF)N1CCCC[C@@H]1CNc1nc(-c2c[nH]c3ncc(Cl)cc23)ncc1F` [Compound 180, (R)-2-fluoroethyl 2-((2-(5-chloro-1H-pyrrolo[2,3-b]pyridin-3-yl)-5-fluoropyrimidin-4-ylamino)methyl)piperidine-1-carboxylate], the pEC50 in assay [1] (setting [9]) was over 5.30. Also, the pIC50 in assay [2] (setting [10]) was over 5.30.
Turning to `C=CCNC(=O)N1CCC[C@@H](CNc2nc(-c3c[nH]c4ncc(Cl)cc34)ncc2F)C1` [Compound 39, (S)—N-allyl-3-((2-(5-chloro-1H-pyrrolo[2,3-b]pyridin-3-yl)-5-fluoropyrimidin-4-ylamino)methyl)piperidine-1-carboxamide], the pEC50 in assay [1] (setting [9]) was over 5.30. The pIC50 in assay [2] (setting [10]) is over 5.30.
As for `COC(=O)N1CCC[C@H](Nc2nc(-c3c[nH]c4ncc(Cl)cc34)ncc2F)C1` [Compound 440], in assay [1] (Influenza A virus, PR/8, MDCK, mean all, A/PR/8/34 influenza virus in MDCK cells, bDNA assay, read-out: EC50), the pEC50 is over 5.30. The pIC50 in assay [2] (Influenza A virus, PR/8, MDCK, mean all, A/PR/8/34 infected MDCK cells, CPE assay, read-out: IC50) was over 5.30.
With `O=C(CCc1ccccc1)N1CCCC[C@@H]1CNc1nc(-c2c[nH]c3ncc(Cl)cc23)ncc1F` [Compound 293, (R)-1-(2-((2-(5-chloro-1H-pyrrolo[2,3-b]pyridin-3-yl)-5-fluoropyrimidin-4-ylamino)methyl)piperidin-1-yl)-3-phenylpropan-1-one], in assay [1] (setting [9]), the pEC50 was over 5.30. Further, the pIC50 in assay [2] (setting [10]) was over 5.30.
Regarding `O=C(CC(F)(F)F)N1CCCC[C@@H]1CNc1nc(-c2c[nH]c3ncc(Cl)cc23)ncc1F` [Compound 280, (R)-1-(2-((2-(5-chloro-1H-pyrrolo[2,3-b]pyridin-3-yl)-5-fluoropyrimidin-4-ylamino)methyl)piperidin-1-yl)-3,3,3-trifluoropropan-1-one], in assay [1] (setting [9]), the pEC50 is over 5.30. The pIC50 in assay [2] (setting [10]) is over 5.30.
As to `CC1(C)CCC[C@H](Nc2nc(-c3c[nH]c4ncc(Cl)cc34)ncc2F)C(=O)N1` [Compound 504], in assay [1] (setting [5]), the negative logarithm of the EC50 (pEC50) is over 5.30. Besides, the pIC50 in assay [2] (setting [6]) was 4.70 to 5.30.
With `O=C(COc1ccccc1)N1CCC[C@H](CNc2nc(-c3c[nH]c4ncc(Cl)cc34)ncc2F)C1` [Compound 94, (R)-1-(3-((2-(5-chloro-1H-pyrrolo[2,3-b]pyridin-3-yl)-5-fluoropyrimidin-4-ylamino)methyl)piperidin-1-yl)-2-phenoxyethanone], in assay [1] (setting [9]), the pEC50 was over 5.30. In addition, the pIC50 in assay [2] (setting [10]) is over 5.30.
As for `CN(C)CC(=O)NC1CCCC(Nc2nc(-c3c[nH]c4ncc(Cl)cc34)ncc2F)C1` (stereo not drawn) [Compound 725], in assay [1] (setting [7]), the pEC50 was over 5.30. In addition, in assay [2] (setting [8]), the pIC50 is over 5.30.
For `O=C(c1ccccc1Cl)N1CCC[C@H](CNc2nc(-c3c[nH]c4ncc(Cl)cc34)ncc2F)C1` [Compound 84, (R)-(3-((2-(5-chloro-1H-pyrrolo[2,3-b]pyridin-3-yl)-5-fluoropyrimidin-4-ylamino)methyl)piperidin-1-yl)(2-chlorophenyl)methanone], in assay [1] (setting [9]), the pEC50 was over 5.30. Also, the pIC50 in assay [2] (setting [10]) is over 5.30.
Turning to `CC(C)C(=O)N1CCOCC1CNc1nc(-c2c[nH]c3ncc(Cl)cc23)ncc1F` (stereo not drawn) [Compound 529, 1-(3-((2-(5-chloro-1H-pyrrolo[2,3-b]pyridin-3-yl)-5-fluoropyrimidin-4-ylamino)methyl)morpholino)-2-methylpropan-1-one], the pEC50 in assay [1] (setting [5]) was under 5.00. In addition, the pIC50 in assay [2] (setting [6]) was 4.70 to 5.30.
As to `CC1(C(=O)O)CCCCC1Nc1nc(-c2c[nH]c3ncc(Cl)cc23)ncc1F` (stereo not drawn) [Compound 677], the pEC50 in assay [1] (setting [7]) was over 5.30. For the same molecule, in assay [2] (setting [8]), the negative logarithm of the IC50 (pIC50) was over 5.30.
Regarding `CCCNC(=O)N1CCCC(Nc2nc(-c3c[nH]c4ncc(Cl)cc34)ncc2F)C1` (stereo not drawn) [Compound 196], the pEC50 in assay [1] (read-out: EC50 (mean all)) was over 5.30. Besides, the pIC50 in assay [2] (read-out: IC50 (mean all)) was over 5.30.
Turning to `O=C(Nc1cccs1)N1CCC[C@H](CNc2nc(-c3c[nH]c4ncc(Cl)cc34)ncc2F)C1` [Compound 129, (R)-3-((2-(5-chloro-1H-pyrrolo[2,3-b]pyridin-3-yl)-5-fluoropyrimidin-4-ylamino)methyl)-N-(thiophen-2-yl)piperidine-1-carboxamide], in assay [1] (setting [9]), the pEC50 is over 5.30. The pIC50 in assay [2] (setting [10]) is over 5.30.
For the molecule `O=C(c1ccccc1C(F)(F)F)N1CCC[C@H](CNc2nc(-c3c[nH]c4ncc(Cl)cc34)ncc2F)C1` [Compound 146, (R)-(3-((2-(5-chloro-1H-pyrrolo[2,3-b]pyridin-3-yl)-5-fluoropyrimidin-4-ylamino)methyl)piperidin-1-yl)(2-(trifluoromethyl)phenyl)methanone], the pEC50 in assay [1] (setting [9]) was over 5.30. Also, the pIC50 in assay [2] (setting [10]) was over 5.30.
On to `C#CCOC(=O)NC1CCCC(Nc2nc(-c3c[nH]c4ncc(Cl)cc34)ncc2F)C1` (stereo not drawn) [Compound 702], for which the pEC50 in assay [1] (setting [7]) is over 5.30. Further, in assay [2] (setting [8]), the pIC50 was over 5.30.
Regarding `O[C@H]1[C@H](O)CCC[C@@H]1Nc1nc(-c2c[nH]c3ncc(Cl)cc23)ncc1F` [Compound 625], the pEC50 in assay [1] (setting [3]) is over 5.30. For the same molecule, the pIC50 in assay [2] (setting [4]) was over 5.30.
As to `Fc1cnc(-c2c[nH]c3ncc(Cl)cc23)nc1NC1CCCN(Cc2cnc[nH]2)C1` (stereo not drawn) [Compound 594, N-(1-((1H-imidazol-5-yl)methyl)piperidin-3-yl)-2-(5-chloro-1H-pyrrolo[2,3-b]pyridin-3-yl)-5-fluoropyrimidin-4-amine], the pEC50 in assay [1] (setting [5]) was over 5.30. In assay [2] (setting [6]), the pIC50 is over 5.30.
For `CNc1ccccc1C(=O)N1CCC[C@H](CNc2nc(-c3c[nH]c4ncc(Cl)cc34)ncc2F)C1` [Compound 112, (R)-(3-((2-(5-chloro-1H-pyrrolo[2,3-b]pyridin-3-yl)-5-fluoropyrimidin-4-ylamino)methyl)piperidin-1-yl)(2-(methylamino)phenyl)methanone], in assay [1] (setting [9]), the pEC50 is over 5.30. In addition, the pIC50 in assay [2] (setting [10]) was over 5.30.
With `N[C@H]1CCC[C@@H](Nc2nc(-c3c[nH]c4ncc(Cl)cc34)ncc2F)C1` [Compound 542, (1R,3S)—N1-[2-(5-chloro-1H-pyrrolo[2,3-b]pyridin-3-yl)-5-fluoro-pyrimidin-4-yl]cyclohexane-1,3-diamine], the pEC50 in assay [1] (setting [5]) was 5.00 to 5.30. Besides, the pIC50 in assay [2] (setting [6]) was 4.70 to 5.30.
The matching figures for `OC[C@@H](O)CN1CCCC(Nc2nc(-c3c[nH]c4ncc(Cl)cc34)ncc2F)C1` (stereo partly drawn) [Compound 587]: over 5.30 and over 5.30.
`OC1CCCC1Nc1nc(-c2c[nH]c3ncc(Cl)cc23)ncc1F` (stereo not drawn) [Compound 14, 2-(2-(5-chloro-1H-pyrrolo[2,3-b]pyridin-3-yl)-5-fluoropyrimidin-4-ylamino)cyclopentanol]: the pEC50 in assay [1] (setting [9]) was over 5.30. Further, the pIC50 in assay [2] (setting [10]) is 4.70 to 5.30.
`CC(C)(C)NC(=O)N1CCC[C@H](CNc2nc(-c3c[nH]c4ncc(Cl)cc34)ncc2F)C1` [Compound 128, (R)—N-tert-butyl-3-((2-(5-chloro-1H-pyrrolo[2,3-b]pyridin-3-yl)-5-fluoropyrimidin-4-ylamino)methyl)piperidine-1-carboxamide]: in assay [1] (setting [9]), the pEC50 is over 5.30. The pIC50 in assay [2] (setting [10]) was over 5.30.
As for `O=C(CN1CCOCC1)NC1CCCC(Nc2nc(-c3c[nH]c4ncc(Cl)cc34)ncc2F)C1` (stereo not drawn) [Compound 730], the pEC50 in assay [1] (setting [7]) was over 5.30. Further, the pIC50 in assay [2] (setting [8]) is over 5.30.
`O=C(Cc1ccc(F)cc1)N1CCC[C@H](CNc2nc(-c3c[nH]c4ncc(Cl)cc34)ncc2F)C1` [Compound 98, (R)-1-(3-((2-(5-chloro-1H-pyrrolo[2,3-b]pyridin-3-yl)-5-fluoropyrimidin-4-ylamino)methyl)piperidin-1-yl)-2-(4-fluorophenyl)ethanone]: in assay [1] (setting [9]), the pEC50 was over 5.30. For the same molecule, in assay [2] (setting [10]), the pIC50 is over 5.30.
